≈ marks a conversion by molar mass, not a printed value. Like-named read-outs stand apart in the source and are kept apart here.
What was measured:
[1] = physchem; details: water
[2] = Paclitaxel aqueous solubility in the presence of hydrotropic agents, polymers and hydrogels (HPLC); details: for hydrotropic effect for paclitaxel, in words: agent concentration as printed in parentheses in the text
Experimental: The mobile phase consists of acetonitrile-water (45:55 v/v) with a flow rate of 1.0 ml/min.
To the filtered solution is added ethylene glycol dimethacrylate, a crosslinker at a concentration of 6 mol % to the monomer.

[3] = Water solubility (maximum solubility) of hydrotropic agents; details: for solubility: water
[4] = log (CO/CW), octanol and water; cited from earlier work
[5] = at 37° C.; cited from earlier work
[6] = physchem
Source text: (§1) These compounds were also used to examine the solubility increase of other poorly soluble drugs. […] Their chemical structures are shown below: [drawing 48]

[7] = Progesterone aqueous solubility in hydrotropic solutions; assay type: physicochemical
Source text: as §1

PTX Solubility [2] [µg/mL] | Molecule | Partition Coefficient [4] | Water Solubility (μM) [5] [µM] | Water Solubility (μg/ml) [5] [µg/mL] | also measured
0 | NC(=O)c1cccc(C(N)=O)n1 [2,6-pyridinedicarboxamide] |  |  |  | solubility [1]: 2.5 mM (≈ 413 µg/mL)
0 | CCN(CC)C(=O)c1cccnc1O [2-hydroxy-N,N-diethylnicotinamide] |  |  |  | solubility [1]: 200 mM (≈ 38800 µg/mL)
0 | NC(=O)c1ccncc1C(N)=O [3,4-pyridinedicarboxamide] |  |  |  | solubility [1]: 25 mM (≈ 4130 µg/mL)
 | Nc1ccc(C(=O)O)c(O)c1 [4-aminosalicylic acid] |  |  |  | solubility [1]: 5 mM (≈ 766 µg/mL)
 | CCN(CC)C(=O)c1ccc(=O)[nH]c1 [6-Hydroxy-N,N-diethylnicotinamide] |  |  |  | solubility [3]: 2000 mM (≈ 388000 µg/mL)
 | CN(C)CCCN1c2ccccc2Sc2ccc(Cl)cc21 [Chlorpromazine] | 3.17 | 94.1 | 30.0 | 
 | C(=C\c1ccccc1)/CN1CCN(C(c2ccccc2)c2ccccc2)CC1 [Cinnarizine] |  | <1.0 | <0.4 | 
 | C[C@@H]1C[C@H]2[C@@H]3CCC4=CC(=O)C=C[C@]4(C)[C@@]3(F)[C@@H](O)C[C@]2(C)[C@@]1(O)C(=O)CO [Dexamethasone] | 1.95 | 25.5 | 10.0 | 
 | O=C(O)Cc1ccccc1Nc1c(Cl)cccc1Cl [Diclofenac] | 1.12 | 10.1 | 3.0 | 
 | CC/C(=C(/CC)c1ccc(O)cc1)c1ccc(O)cc1 [Diethylstilbestrol] | 4.50 | 7.5 | 2.0 | 
 | C[C@H]1O[C@@H](O[C@H]2[C@@H](O)C[C@H](O[C@H]3[C@@H](O)C[C@H](O[C@H]4CC[C@@]5(C)[C@H](CC[C@@H]6[C@@H]5C[C@@H](O)[C@]5(C)[C@@H](C7=CC(=O)OC7)CC[C@]65O)C4)O[C@@H]3C)O[C@@H]2C)C[C@H](O)[C@@H]1O [Digoxin] | 1.26 | 38.4 | 30.0 | 
 | C[C@]12CC[C@@H]3c4ccc(O)cc4CC[C@H]3[C@@H]1CCC2=O [Estrone] | 3.69 |  |  | 
 | Fc1ccc(C(c2ccc(F)cc2)N2CCN(C/C=C/c3ccccc3)CC2)cc1 [Flunarizine] | 4.70 | 1.0 | 0.4 | 
 | COC1=CC(=O)C[C@@H](C)[C@]12Oc1c(Cl)c(OC)cc(OC)c1C2=O [Griseofulvin] | 2.07 | 19.8 |  | Griseofulvin aqueous solubility [6]: 7 µg/mL; solubility ([6]; 37 °C, water): 7 µg/mL (≈ 19.8 µM)
 | C[C@]12CCC(=O)C=C1CC[C@@H]1[C@@H]2[C@@H](O)C[C@@]2(C)[C@H]1CC[C@]2(O)C(=O)CO [Hydrocortisone] | 1.52 |  |  | 
 | COc1ccc2c(c1)c(CC(=O)O)c(C)n2C(=O)c1ccc(Cl)cc1 [Indomethacin] | 4.27 | 55.9 | 20.0 | 
 | CCC(C)n1ncn(-c2ccc(N3CCN(c4ccc(OCC5COC(Cn6cncn6)(c6ccc(Cl)cc6Cl)O5)cc4)CC3)cc2)c1=O (centres unmarked) [Itraconazole] | 5.66 | 2.8 | 2.0 | 
 | COC(=O)Nc1nc2ccc(C(=O)c3ccccc3)cc2[nH]1 [Mebendazole] | 2.83 |  |  | 
 | CCN(CC)C(=O)c1cccnc1 [N,N-diethylnicotinamide] |  |  |  | hydrotropic property relative to N,N-dimethylnicotinamide [2]: > 20 times
 | C=CC(=O)NC(C)C [N-isopropylacrylamide] |  |  |  | hydrotropic effect for paclitaxel, in words [2]: very small hydrotropic effects
 | CNC(C)=O [N-methylacetamide] |  |  |  | hydrotropic effect for paclitaxel, in words [2]: very small hydrotropic effects; PTX Solubility ([2]; hydrotropic agent […]): 12 µg/mL
 | COC(=O)C1=C(C)NC(C)=C(C(=O)OCCN(C)Cc2ccccc2)C1c1cccc([N+](=O)[O-])c1 (centres unmarked) [Nicardipine] | 3.62 | 7.1 | 3.4 | 
 | COC(=O)C1=C(C)NC(C)=C(C(=O)OC)C1c1ccccc1[N+](=O)[O-] [Nifedifine] | 2.20 | 28.9 | 10.0 | 
 | C#C[C@]1(O)CC[C@H]2[C@@H]3CCC4=CC(=O)CC[C@@H]4[C@H]3CC[C@@]21C [Norethindrone] | 3.15 |  |  | 
 | CCOc1ccc(NC(C)=O)cc1 [Phenacetin] | 1.55 |  |  | 
 | O=C1NC(=O)C(c2ccccc2)(c2ccccc2)N1 [Phenytoin] | 2.47 | 79.3 | 20.0 | 
 | O=c1[nH]c2ccccc2n1C1CCN(CCCC(c2ccc(F)cc2)c2ccc(F)cc2)CC1 [Pimozide] | 4.50 | 2.2 | 1.0 | 

PTX Solubility [2] [µg/mL] | Molecule | Partition Coefficient [4] | Water Solubility (μM) [5] [µM] | Water Solubility (μg/ml) [5] [µg/mL] | also measured
 | CC(=O)[C@H]1CC[C@H]2[C@@H]3CCC4=CC(=O)CC[C@]4(C)[C@H]3CC[C@]12C [Progesterone] | 3.84 | 3.8 |  | Progesterone solubility in hydrotropic solutions ([7]; 0.0 M, 37° C., mean ±SD, n=3): 0.0012 ± 0.0000; solubility ([7]; 37 °C, 0 M, control in pure water, read-out: Progesterone aqueous solubility): 1.2 µg/mL (≈ 3.82 µM); solubility ([7]; water without hydrotropic agent, water, 0.0 M, 37° C., mean ±SD, n=3, read-out: Progesterone solubility in hydrotropic solutions): 1.2 µg/mL (≈ 3.82 µM)
 | CO[C@H]1C[C@@H]2CC[C@@H](C)[C@@](O)(O2)C(=O)C(=O)N2CCCC[C@H]2C(=O)O[C@H]([C@H](C)C[C@@H]2CC[C@@H](O)[C@H](OC)C2)CC(=O)[C@H](C)/C=C(\C)[C@@H](O)[C@@H](OC)C(=O)[C@H](C)C[C@H](C)/C=C/C=C/C=C/1C [Rapamycin] |  | 3.3 | 3.0 | 
 | COC(=O)[C@H]1[C@H]2C[C@@H]3c4[nH]c5cc(OC)ccc5c4CCN3C[C@H]2C[C@@H](OC(=O)c2cc(OC)c(OC)c(OC)c2)[C@@H]1OC [Reserpine] | 3.73 | 1.6 | 1.0 | 
 | Cc1ccc(S(=O)(=O)[O-])cc1.[Na+] [Sodium p-toluenesulfonate] |  |  |  | solubility [3]: 2500 mM
 | Cc1ccc(S(=O)(=O)[O-])c(C)c1.[Na+] [Sodium xylenesulfonate] |  |  |  | solubility [3]: 2500 mM
 | CC(=O)S[C@@H]1CC2=CC(=O)CC[C@]2(C)[C@H]2CC[C@@]3(C)[C@@H](CC[C@@]34CCC(=O)O4)[C@H]12 [Spironolactone] | 2.78 | 72.0 | 30.0 | 
 | CC(C)(C)c1ccc(C(O)CCCN2CCC(C(O)(c3ccccc3)c3ccccc3)CC2)cc1 (centres unmarked) [Terfenadine] | 4.05 | 152.8 | 72.1 | 
 | O=C1CCC(N2C(=O)c3ccccc3C2=O)C(=O)N1 (centres unmarked) [Thalidomide] | 0.64 | 77.5 | 20.0 | 
 | CCCCNC(=O)NS(=O)(=O)c1ccc(C)cc1 [Tolbutamide] |  | 202.6 | 54.8 | 
 | CN1CCN(CCCN2c3ccccc3Sc3ccc(C(F)(F)F)cc32)CC1 [Trifluoperazine] | 4.15 |  |  | 
 | Nc1ncnc2c1ncn2[C@@H]1O[C@H](CO)[C@@H](O)[C@H]1O [adenosine] |  |  |  | solubility [1]: 5 mM (≈ 1340 µg/mL)
 | CC(C)N(C(=O)c1cccnc1)C(C)C [diisopropylnicotinamide, N,N-diisopropylnicotinamide] |  |  |  | solubility [1]: 50 mM (≈ 10300 µg/mL)
 | CC(=O)OCC(COC(C)=O)OC(C)=O [glyceryl triacetate] |  |  |  | solubility [1]: 200 mM
 | O=C1NS(=O)(=O)c2ccccc21 [o-benzoic acid sulfimide] |  |  |  | maximum solubility (water solubility) of the hydrotropic agent ([3]; in water): 10 mM
1 | NC(N)=O [urea] |  |  |  | 
66 | Pluronic F127 |  |  |  | 
118 | Pluronic P85 |  |  |  | 
42 | Poly(2-methacryloyloxyethyl phosphorylcholine-co-N-isopropylacrylamide) |  |  |  | 
149 | Poly(6-allyloxy-N,N-diethylnicotinamide) |  |  |  | 
253 | Poly(N-allylnicotinamide) |  |  |  | 
28 | Poly(Sodium 4-acrylamidosalicylate) |  |  |  | 
0 | Poly(Sodium 5-acrylamidosalicylate) |  |  |  | 
3 | Poly(sodium 6-allyloxynicotinic acid) |  |  |  | 
3 | Polyvinylpyrrolidone K-25 |  |  |  | 
1 | Polyvinylpyrrolidone K-30 |  |  |  | 
2 | Polyvinylpyrrolidone K-90 |  |  |  | 
0 | Polyvinylpyrrolidone K- 17 |  |  |  | 

Molecule | PTX Solubility [2] [µg/mL] | Partition Coefficient [4] | Water Solubility (μM) [5] [µM] | Water Solubility (μg/ml) [5] [µg/mL] | also measured
C=C(C)C(=O)OCCOP(=O)([O-])OCC[N+](C)(C)C [2-methacryloyloxyethyl phosphorylcholine] | 3199 |  |  |  | 

Source: patent US20030031715A1, “Pharmaceutical applications of hydrotropic agents, polymers thereof, and hydrogels thereof” (priority 2000, published 2003)
